For test [1], the target named is T1, HumRadA2 (Pyrococcus furiosus, UniProt O74036, I169M/Y201A/V202Y/E219S/D220A/K221M/DEL288-301).
T1 construct: gene radA; humanised monomeric C-terminal ATPase domain of RadA; six FxxA-site mutations; E. coli BL21(DE3)
Description: ITC. The note with it: 25 °C, 50 mM Tris pH 7.5, 100 mM NaCl, 5 mM MgCl2; read-out: HumRadA2 / K D/μM. It is filed as binding.

Test [2] concerns the target T2, RAD51–BRC4 (Homo sapiens, UniProt Q06609).
T2 construct: monomerised fusion: BRC repeat 4 of BRCA2 covalently linked to the N terminus of the human RAD51 ATPase domain; with Breast cancer type 2 susceptibility protein (BRC repeat 4)
The experiment in a line: ITC. It counts as binding. The note with it: read-out: RAD51-BRC4 / K D/μM.

Test [3] can be described thus: ITC. It is filed as binding, Pyrococcus furiosus. The following applies: 25 °C, 50 mM Tris pH 7.5, 100 mM NaCl, 5 mM MgCl2; read-out: RAD51-BRC4 / K D/μM.

T2 sequence (Q06609 97-339 limits assumed): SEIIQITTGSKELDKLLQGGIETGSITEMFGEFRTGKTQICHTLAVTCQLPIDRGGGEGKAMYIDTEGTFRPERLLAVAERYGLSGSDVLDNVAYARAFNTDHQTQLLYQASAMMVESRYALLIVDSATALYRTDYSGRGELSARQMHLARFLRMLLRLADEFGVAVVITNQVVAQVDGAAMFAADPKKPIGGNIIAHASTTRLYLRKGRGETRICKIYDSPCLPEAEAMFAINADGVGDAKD
T2 sequence (P51587 1517-1551 partner limits assumed): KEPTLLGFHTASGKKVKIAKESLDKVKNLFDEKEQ

As for `Nc1ncnc2c1ncn2[C@@H]1O[C@H](COP(=O)(O)OP(=O)(O)O)[C@@H](O)[C@H]1O` [ADP], the Kd in test [1] was 0.54 µM; in test [2], 1 µM.

Regarding `Nc1ncnc2c1ncn2[C@@H]1O[C@H](COP(=O)(O)OP(=O)(O)NP(=O)(O)O)[C@@H](O)[C@H]1O` [AMPPNP], the Kd is 20 µM in test [1] and 12 µM in test [2].

On to `Nc1ncnc2c1ncn2[C@@H]1O[C@H](COP(=O)(O)OP(=O)(O)OP(=O)(O)O)[C@@H](O)[C@H]1O` [ATP], for which the Kd in test [3] and in test [2] was 1 µM each time.

As for `Nc1nc2c(ncn2[C@@H]2O[C@H](COP(=O)(O)OP(=O)(O)O)[C@@H](O)[C@H]2O)c(=O)[nH]1` [GDP], the Kd stood at 0.21 µM in test [1] and 2.5 µM in test [2].

For the compound `Nc1nc2c(ncn2[C@@H]2O[C@H](COP(=O)(O)OP(=O)(O)OP(=O)(O)O)[C@@H](O)[C@H]2O)c(=O)[nH]1` [GTP], the Kd in test [1] was 0.64 µM; in test [2] it was 5 µM.
